Assay results taken from a compilation of properties of binary mixtures (doi:10.1016/j.molliq.2019.111925).

Test: xn = mol fraction of the nth substance listed
Conditions: 100 kPa

O + CC(=O)[O-].CC[n+]1ccn(C)c1
x2 = 0
Conditions | speed of sound [m/s]
293.15 K | 1485
298.15 K | 1499
303.15 K | 1511
333.15 K | 1551
343.15 K | 1554

CC(=O)[O-].CC[n+]1ccn(C)c1 + O
Conditions | electrical conductivity [S/m] | speed of sound [m/s]
293.15 K, x1 = 0.105 | – | 1942
293.15 K, x1 = 0.1988 | – | 1959
293.15 K, x1 = 0.2003 | 1.59 | –
293.15 K, x1 = 0.3952 | 0.833 | –
293.15 K, x1 = 0.4445 | – | 1852
293.15 K, x1 = 0.5602 | – | 1776
293.15 K, x1 = 0.5984 | 0.49 | –
293.15 K, x1 = 0.7375 | – | 1778
293.15 K, x1 = 0.8521 | – | 1762
293.15 K, x1 = 0.9481 | 0.228 | –
293.15 K, x2 = 0.0174 | – | 1753
298.15 K, x1 = 0.4445 | – | 1839
298.15 K, x1 = 0.5602 | – | 1764
298.15 K, x1 = 0.7375 | – | 1765
298.15 K, x1 = 0.8521 | – | 1749
298.15 K, x1 = 0.9481 | 0.301 | –
298.15 K, x1 = 1 | 0.299 | 1740
298.15 K, x2 = 0.0174 | – | 1740
303.15 K, x1 = 0.105 | – | 1917
303.15 K, x1 = 0.1988 | – | 1932
303.15 K, x1 = 0.3952 | 1.28 | –
303.15 K, x1 = 0.4445 | – | 1827
303.15 K, x1 = 0.5602 | – | 1753
303.15 K, x1 = 0.5984 | 0.776 | –
303.15 K, x1 = 0.7375 | – | 1753
303.15 K, x1 = 0.8521 | – | 1736
303.15 K, x1 = 0.9481 | 0.392 | –
303.15 K, x1 = 1 | 0.391 | 1727
303.15 K, x2 = 0.0174 | – | 1726
313.15 K, x1 = 0.1988 | – | 1904
313.15 K, x1 = 0.2003 | 3.32 | –
313.15 K, x1 = 0.3952 | 1.84 | –
313.15 K, x1 = 0.4445 | – | 1803
313.15 K, x1 = 0.5602 | – | 1729
313.15 K, x1 = 0.5984 | 1.16 | –
313.15 K, x1 = 0.7375 | – | 1729
313.15 K, x1 = 0.7987 | 0.819 | –
313.15 K, x1 = 0.8521 | – | 1712
313.15 K, x1 = 0.9481 | 0.627 | –
313.15 K, x1 = 1 | 0.625 | 1701
313.15 K, x2 = 0.0174 | – | 1701
323.15 K, x1 = 0.105 | – | 1864
323.15 K, x1 = 0.2003 | 4.45 | –
323.15 K, x1 = 0.3952 | 2.52 | –
323.15 K, x1 = 0.4445 | – | 1779
323.15 K, x1 = 0.5602 | – | 1707
323.15 K, x1 = 0.7375 | – | 1705
323.15 K, x1 = 0.7987 | 1.19 | –
323.15 K, x1 = 0.8521 | – | 1687
323.15 K, x1 = 0.9481 | 0.934 | –
323.15 K, x1 = 1 | 0.929 | 1676
323.15 K, x2 = 0.0174 | – | 1676
333.15 K, x1 = 0.105 | – | 1846
333.15 K, x1 = 0.1988 | – | 1848
333.15 K, x1 = 0.2003 | 5.75 | –
333.15 K, x1 = 0.3952 | 3.32 | –
333.15 K, x1 = 0.5602 | – | 1690
333.15 K, x1 = 0.5984 | 2.19 | –
333.15 K, x1 = 0.7375 | – | 1682
333.15 K, x1 = 0.7987 | 1.64 | –
333.15 K, x1 = 0.8521 | – | 1664
343.15 K, x1 = 0.105 | – | 1809
343.15 K, x1 = 0.4445 | – | 1731
343.15 K, x1 = 0.5602 | – | 1668
343.15 K, x1 = 0.7375 | – | 1659
343.15 K, x1 = 0.9481 | 1.76 | –
343.15 K, x2 = 0.0174 | – | 1629
353.15 K, x1 = 0.9481 | 2.28 | –
353.15 K, x1 = 1 | 2.28 | –
